# Experimental data: US20050197350A1, “Novel quinoline, tetrahydroquinazoline, and pyrimidine derivatives and methods of treatment related to the use thereof” (TAISHO PHARMACEUTICAL CO., LTD., priority 2003, published 2005)
# System: MCH receptors
# Test: MCH receptor activity class (method not given)
# Conditions: class by percent of control at 10^-7 M or IC50
row,SMILES,class
1,CN(C)c1nc(N[C@H]2CC[C@@H](NC(=S)Nc3ccc(Br)cc3)CC2)nc2c1CCCC2 [compound 1737],3 (Class 3 The value of percent of control at 10^−7 M was more than 60% or the value of IC50 was more than 200 nM.)
2,CN(C)c1nc(N[C@H]2CC[C@@H](NC(=S)Nc3ccc(C#N)cc3)CC2)nc2c1CCCC2 [compound 1738],3 (Class 3 The value of percent of control at 10^−7 M was more than 60% or the value of IC50 was more than 200 nM.)
3,CN(C)c1nc(N[C@H]2CC[C@@H](NC(=S)Nc3ccc(Cl)cc3Cl)CC2)nc2c1CCCC2 [compound 1739],3 (Class 3 The value of percent of control at 10^−7 M was more than 60% or the value of IC50 was more than 200 nM.)
4,"COc1ccc(NC(=S)N[C@H]2CC[C@@H](Nc3nc4c(c(N(C)C)n3)CCCC4)CC2)c(OC)c1 [compound 1740, N-(2,4-dimethoxyphenyl)-N′-(cis-4-{[4-(dimethylamino)-5,6,7,8-tetrahydroquinazolin-2-yl]amino}cyclohexyl)thiourea]",1 (Class 1: The value of percent of control at 10^−7 M was less than 40% or the value of IC50 was less than 50 nM.)
5,Cc1cccc(C)c1NC(=S)N[C@H]1CC[C@@H](Nc2nc3c(c(N(C)C)n2)CCCC3)CC1 [compound 1741],3 (Class 3 The value of percent of control at 10^−7 M was more than 60% or the value of IC50 was more than 200 nM.)
6,CCc1cccc(C(C)C)c1NC(=S)N[C@H]1CC[C@@H](Nc2nc3c(c(N(C)C)n2)CCCC3)CC1 [compound 1742],3 (Class 3 The value of percent of control at 10^−7 M was more than 60% or the value of IC50 was more than 200 nM.)
7,COc1ccccc1NC(=S)N[C@H]1CC[C@@H](Nc2nc3c(c(N(C)C)n2)CCCC3)CC1 [compound 1743],3 (Class 3 The value of percent of control at 10^−7 M was more than 60% or the value of IC50 was more than 200 nM.)
8,CN(C)c1nc(N[C@H]2CC[C@@H](NC(=S)Nc3cccc4ccccc34)CC2)nc2c1CCCC2 [compound 1744],3 (Class 3 The value of percent of control at 10^−7 M was more than 60% or the value of IC50 was more than 200 nM.)
9,COc1cc(NC(=S)N[C@H]2CC[C@@H](Nc3nc4c(c(N(C)C)n3)CCCC4)CC2)cc(OC)c1OC [compound 1745],1 (Class 1: The value of percent of control at 10^−7 M was less than 40% or the value of IC50 was less than 50 nM.)
10,"COc1ccc(NC(=S)N[C@H]2CC[C@@H](Nc3nc4c(c(N(C)C)n3)CCCC4)CC2)cc1OC [compound 1746, N-(3,4-dimethoxyphenyl)-N′-(cis-4-{[4-(dimethylamino)-5,6,7,8-tetrahydroquinazolin-2-yl]amino}cyclohexyl)thiourea]",1 (Class 1: The value of percent of control at 10^−7 M was less than 40% or the value of IC50 was less than 50 nM.)
11,CN(C)c1nc(N[C@H]2CC[C@@H](NC(=S)Nc3ccc(N(C)C)c4ccccc34)CC2)nc2c1CCCC2 [compound 1747],2 (Class 2: The value of percent of control at 10^−7 M was from 40% to 60% or the value of IC′50 was from 50 nM to 200 nM.)
12,CCc1ccccc1NC(=S)N[C@H]1CC[C@@H](Nc2nc3c(c(N(C)C)n2)CCCC3)CC1 [compound 1748],3 (Class 3 The value of percent of control at 10^−7 M was more than 60% or the value of IC50 was more than 200 nM.)
13,COc1cc([N+](=O)[O-])ccc1NC(=S)N[C@H]1CC[C@@H](Nc2nc3c(c(N(C)C)n2)CCCC3)CC1 [compound 1749],3 (Class 3 The value of percent of control at 10^−7 M was more than 60% or the value of IC50 was more than 200 nM.)
14,COc1ccc(C)cc1NC(=S)N[C@H]1CC[C@@H](Nc2nc3c(c(N(C)C)n2)CCCC3)CC1 [compound 1750],2 (Class 2: The value of percent of control at 10^−7 M was from 40% to 60% or the value of IC′50 was from 50 nM to 200 nM.)
15,CN(C)c1nc(N[C@H]2CC[C@@H](NC(=S)Nc3ccc(Br)cc3Cl)CC2)nc2c1CCCC2 [compound 1751],1 (Class 1: The value of percent of control at 10^−7 M was less than 40% or the value of IC50 was less than 50 nM.)
16,CN(C)c1nc(N[C@H]2CC[C@@H](NC(=S)Nc3ccc(I)cc3)CC2)nc2c1CCCC2 [compound 1752],2 (Class 2: The value of percent of control at 10^−7 M was from 40% to 60% or the value of IC′50 was from 50 nM to 200 nM.)
17,CN(C)c1nc(N[C@H]2CC[C@@H](NC(=S)Nc3c(Cl)cc(Cl)cc3Cl)CC2)nc2c1CCCC2 [compound 1754],2 (Class 2: The value of percent of control at 10^−7 M was from 40% to 60% or the value of IC′50 was from 50 nM to 200 nM.)
18,Cc1cc(C)c(NC(=S)N[C@H]2CC[C@@H](Nc3nc4c(c(N(C)C)n3)CCCC4)CC2)c(C)c1 [compound 1755],1 (Class 1: The value of percent of control at 10^−7 M was less than 40% or the value of IC50 was less than 50 nM.)
19,Cc1ccc(NC(=S)N[C@H]2CC[C@@H](Nc3nc4c(c(N(C)C)n3)CCCC4)CC2)c(C)c1 [compound 1756],2 (Class 2: The value of percent of control at 10^−7 M was from 40% to 60% or the value of IC′50 was from 50 nM to 200 nM.)
20,CCc1cccc(CC)c1NC(=S)N[C@H]1CC[C@@H](Nc2nc3c(c(N(C)C)n2)CCCC3)CC1 [compound 1757],1 (Class 1: The value of percent of control at 10^−7 M was less than 40% or the value of IC50 was less than 50 nM.)
21,Cc1ccc(NC(=S)N[C@H]2CC[C@@H](Nc3nc4c(c(N(C)C)n3)CCCC4)CC2)c(Br)c1 [compound 1758],3 (Class 3 The value of percent of control at 10^−7 M was more than 60% or the value of IC50 was more than 200 nM.)
22,CN(C)c1nc(N[C@H]2CC[C@@H](NC(=S)NCc3ccccc3Cl)CC2)nc2c1CCCC2 [compound 1759],3 (Class 3 The value of percent of control at 10^−7 M was more than 60% or the value of IC50 was more than 200 nM.)
23,CCc1cccc(C)c1NC(=S)N[C@H]1CC[C@@H](Nc2nc3c(c(N(C)C)n2)CCCC3)CC1 [compound 1760],3 (Class 3 The value of percent of control at 10^−7 M was more than 60% or the value of IC50 was more than 200 nM.)
24,CC(C)c1ccccc1NC(=S)N[C@H]1CC[C@@H](Nc2nc3c(c(N(C)C)n2)CCCC3)CC1 [compound 1761],3 (Class 3 The value of percent of control at 10^−7 M was more than 60% or the value of IC50 was more than 200 nM.)
25,COC(=O)c1cccc(NC(=S)N[C@H]2CC[C@@H](Nc3nc4c(c(N(C)C)n3)CCCC4)CC2)c1 [compound 1762],3 (Class 3 The value of percent of control at 10^−7 M was more than 60% or the value of IC50 was more than 200 nM.)
26,"Cc1cc(Br)cc(C)c1NC(=S)N[C@H]1CC[C@@H](Nc2nc3c(c(N(C)C)n2)CCCC3)CC1 [compound 1763, N-(4-bromo-2,6-dimethylphenyl)-N′-(cis-4-{[4-(dimethylamino)-5,6,7,8-tetrahydroquinazolin-2-yl]amino}cyclohexyl)thiourea]",1 (Class 1: The value of percent of control at 10^−7 M was less than 40% or the value of IC50 was less than 50 nM.)
27,"Cc1cc(Br)ccc1NC(=S)N[C@H]1CC[C@@H](Nc2nc3c(c(N(C)C)n2)CCCC3)CC1 [compound 1764, N-(4-bromo-2-methylphenyl)-N′-(cis-4-{[4-(dimethylamino)-5,6,7,8-tetrahydroquinazolin-2-yl]amino}cyclohexyl)thiourea]",1 (Class 1: The value of percent of control at 10^−7 M was less than 40% or the value of IC50 was less than 50 nM.)
